Experimental data from patent publication US10336733B2, “Aryl acylsulfonamides as BLT1 antagonists” (Merck Sharp & Dohme Corp., priority 2015, dated 2019).

What follows are compounds tested against human BLT1 receptor (Homo sapiens (Human), UniProt Q15722) (assay: BLT-1 cAMP Assay). Conditions: antagonist mode; HEK293 cells recombinantly expressing human BLT1 receptor; forskolin 4 μM and LTB4 2 nM; cAMP detection.
Format: cell-based
Experimental: The ability of compounds to antagonize the human BLT1 receptor was determined using a kit to measure changes in intracellular cyclic AMP levels (cAMP dynamic assay kit, Cisbio Cat. No. 62AM4PEC). HEK293 cells recombinantly expressing human BLT1 receptor, previously frozen in Recovery Medium (Life Technologies, Cat. No. 12648-010) were thawed and diluted into assay medium (HBSS (Hyclone SH 30268.01), 20 mM HEPES (Gibco 15630-106), 800 μM IBMX (Sigma I5879), 0.1% DTPA BSA (Perkin Elmer CR84-100)). The cell suspension was centrifuged at 200×g for 10 min and then resuspended in fresh assay medium to a density of 2.5×10^5 cells/mL. A Labcyte Echo 550 acoustic dispenser was used to transfer 25 nL of test compound dissolved in DMSO into the wells of a dry 384-well plate (Greiner 784075). All subsequent liquid additions were performed using a BIORAPTR (FRD; Beckman Coulter). Next, 5 μL of cell suspension was added and incubated for 20 min. at 37° C. and 5% CO2 in a humidified plastic tray. To test for agonist activity […] of assay buffer containing forskolin (Sigma F-6886. 4 μM for BLT1) was added and incubated for 30 minutes at 37° C. and 5% CO2 in a humidified plastic tray. To test for antagonist activity 5 μL of assay buffer containing forskolin (Sigma F-6886. 4 μM for BLT1) and either LTB4 (Sigma Aldrich L0517; 2 nM BLT1) was added and incubated for 30 minutes at 37° C. and 5% CO2 in a humidified plastic tray.
The levels of cAMP were detected using the CisBio kit following the manufacturer's instructions: cAMP-d2 vial was reconstituted with distilled water and then diluted accordingly with conjugate & lysis buffer. 5 μL of cAMP-d2 working solution was added to all of the wells of the assay plate. cAMP-Cryptate vial was reconstituted with distilled water and then diluted accordingly with conjugate & lysis buffer. 5 μL of cAMP-Cryptate working solution were added to the assay plate. The assay plate was shaken for 3 minutes and incubated at room temperature for 45 minutes, then read on Perkin Elmer Envision. cAMP standard curve and fit data were plotted using a 4 parameter dose response curve fitting algorithm to fit curve. A 4-parameter curve fit (Max, min, log EC50 and slope) was used to transform fluorescent 665 nm/615 nm ratio signal to cAMP concentration. After normalization to treated and untreated controls, the percent effect of signal at each compound concentration was calculated. The plot of percent effect versus the log of compound concentration was fit with a 4-parameter concentration response equation to calculate EC50 values. Compound concentrations tested were 10 000, 3 333, 1 111, 370.4, 123.4, 41.2, 13.7, 4.6, 1.5 and 0.5 nM with 0.25% residual DMSO.

human BLT1 receptor, sequence (Q15722 whole entry): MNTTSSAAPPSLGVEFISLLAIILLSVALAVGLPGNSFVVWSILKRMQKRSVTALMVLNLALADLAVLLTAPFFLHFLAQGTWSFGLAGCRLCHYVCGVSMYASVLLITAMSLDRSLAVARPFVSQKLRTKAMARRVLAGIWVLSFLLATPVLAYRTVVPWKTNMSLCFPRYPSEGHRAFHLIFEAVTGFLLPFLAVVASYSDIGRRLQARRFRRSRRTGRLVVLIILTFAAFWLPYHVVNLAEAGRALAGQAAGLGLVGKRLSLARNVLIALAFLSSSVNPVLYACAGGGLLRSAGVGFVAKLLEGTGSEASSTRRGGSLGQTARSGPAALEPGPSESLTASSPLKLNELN

**Q.** CC(C)(C)S(=O)(=O)NC(=O)c1ccc(F)cc1-c1ccc2c(c1)OC[C@H](Cc1ccccn1)[C@H]2O (single isomer, unassigned) [Example 14, N-(tert-Butylsulfonyl)-4-fluoro-2-((3S,4R or 3R,4S)-4-hydroxy-3-(pyridin-2-ylmethyl)chroman-7-yl)benzamide] was tested. Which EC50 did it give?
**A.** Its EC50 is 2 nM.

**Q.** For O=C(NS(=O)(=O)C1CC1)c1ccc(F)cc1-c1ccc2c(c1)OC[C@@H](Cc1ccccn1)[C@@H]2O (single isomer, unassigned) [Example 15, N-(Cyclopropylsulfonyl)-4-fluoro-2-((3R,4S or 3S,4R)-4-hydroxy-3-(pyridin-2-ylmethyl)chroman-7-yl)benzamide], which EC50 is on record?
**A.** The EC50 was 480 nM.

**Q.** For O=C(NS(=O)(=O)C1CC1)c1ccc(F)cc1-c1ccc2c(c1)OC[C@H](Cc1ccccn1)[C@H]2O (single isomer, unassigned) [Example 16, N-(Cyclopropylsulfonyl)-4-fluoro-2-((3S,4R or 3R,4S)-4-hydroxy-3-(pyridin-2-ylmethyl)chroman-7-yl)benzamide], which EC50 is on record?
**A.** Its EC50 is 4 nM.

**Q.** With CC1(S(=O)(=O)NC(=O)c2ccccc2-c2ccc3c(c2)OC[C@@H](Cc2ccccc2)[C@@H]3O)CC1 (single isomer, unassigned) [Example 21, 2-((3R,4S or 3S,4R)-3-Benzyl-4-hydroxychroman-7-yl)-N-((1-methylcyclopropyl)sulfonyl)benzamide] as the compound, how does the EC50 read?
**A.** The EC50 was 2040 nM.

**Q.** Which EC50 does the source give for CC1(S(=O)(=O)NC(=O)c2ccccc2-c2ccc3c(c2)OC[C@H](Cc2ccccc2)[C@H]3O)CC1 (single isomer, unassigned) [Example 22, 2-((3S,4R or 3R,4S)-3-Benzyl-4-hydroxychroman-7-yl)-N-((1-methylcyclopropyl)sulfonyl)benzamide] here?
**A.** Its EC50 is 15 nM.

**Q.** How did the EC50 turn out when O=C(NS(=O)(=O)C1CC1)c1ccccc1-c1ccc2c(c1)OC[C@@H](Cc1ccccc1)[C@@H]2O (single isomer, unassigned) [Example 23, 2-((3R,4S or 3S,4R)-3-Benzyl-4-hydroxychroman-7-yl)-N-(cyclopropylsulfonyl)benzamide] was run?
**A.** The EC50 was 2820 nM.

**Q.** Which EC50 does the source give for O=C(NS(=O)(=O)C1CC1)c1ccccc1-c1ccc2c(c1)OC[C@H](Cc1ccccc1)[C@H]2O (single isomer, unassigned) [Example 24, 2-((3S,4R or 3R,4S)-3-Benzyl-4-hydroxychroman-7-yl)-N-(cyclopropylsulfonyl)benzamide] here?
**A.** The EC50 was 17 nM.

**Q.** How did the EC50 turn out when CC1(S(=O)(=O)NC(=O)c2ccccc2-c2ccc3c(c2)OC[C@@H](Cc2cscn2)[C@@H]3O)CC1 (single isomer, unassigned) [Example 26, 2-((3R, 4S or 3S, 4R)-4-Hydroxy-3-(thiazol-4-ylmethyl)chroman-7-yl)-N-((1-methylcyclopropyl)sulfonyl)benzamide] was run?
**A.** Its EC50 is 770 nM.

**Q.** CC1(S(=O)(=O)NC(=O)c2ccccc2-c2ccc3c(c2)OC[C@H](Cc2cscn2)[C@H]3O)CC1 (single isomer, unassigned) [Example 27, 2-((3S, 4R or 3R,4S)-4-hydroxy-3-(thiazol-4-ylmethyl)chroman-7-yl)-N-((1-methylcyclopropyl)sulfonyl)benzamide] was tested. Which EC50 did it give?
**A.** The EC50 was 26 nM.

**Q.** For CC(C)(C)S(=O)(=O)NC(=O)c1ccccc1-c1ccc2c(c1)OC[C@@H](Cc1cscn1)[C@@H]2O (single isomer, unassigned) [Example 33, N-(tert-Butylsulfonyl)-2-((3R,4S or 3S,4R)-4-hydroxy-3-(thiazol-4-ylmethyl)chroman-7-yl)benzamide], which EC50 is on record?
**A.** Its EC50 is 808 nM.

**Q.** CC(C)(C)S(=O)(=O)NC(=O)c1ccccc1-c1ccc2c(c1)OC[C@H](Cc1cscn1)[C@H]2O (single isomer, unassigned) [Example 34, N-(tert-Butylsulfonyl)-2-((3S,4R or 3R,4S)-4-hydroxy-3-(thiazol-4-ylmethyl)chroman-7-yl)benzamide] was tested. Which EC50 did it give?
**A.** The EC50 was 9 nM.

**Q.** How did the EC50 turn out when CCn1nccc1C[C@H]1COc2cc(-c3ccccc3C(=O)NS(=O)(=O)C(C)(C)C)ccc2[C@@H]1O (single isomer, unassigned) [Example 37, N-(tert-Butylsulfonyl)-2-((3S,4R or 3R,4S)-3-((1-ethyl-1H-pyrazol-5-yl)methyl)-4-hydroxychroman-7-yl)benzamide] was run?
**A.** Its EC50 is 36 nM.

**Q.** How did the EC50 turn out when CCn1nccc1C[C@@H]1COc2cc(-c3ccccc3C(=O)NS(=O)(=O)C(C)(C)C)ccc2[C@H]1O (single isomer, unassigned) [Example 38, N-(tert-Butylsulfonyl)-2-((3R,4S or 3S,4R)-3-((1-ethyl-1H-pyrazol-5-yl)methyl)-4-hydroxychroman-7-yl)benzamide] was run?
**A.** The EC50 was 1160 nM.

**Q.** For O=C(NS(=O)(=O)C(F)(F)F)c1ccc(F)cc1-c1ccc2c(c1)OC[C@@H](Cc1ccc(-c3ccccc3)cc1)[C@@H]2O (single isomer, unassigned) [Example 41, 2-((3R,4S or 3S,4R)-3-([1,1′-Biphenyl]-4-ylmethyl)-4-hydroxychroman-7-yl)-4-fluoro-N-((trifluoromethyl)sulfonyl)benzamide], which EC50 is on record?
**A.** The EC50 was 11 nM.

**Q.** For CC1(S(=O)(=O)NC(=O)c2ccccc2-c2ccc3c(c2)OC[C@H](Cc2coc(-c4ccccc4)n2)[C@H]3O)CC1 (single isomer, unassigned) [Example 45, 2-((3S,4R or 3R,4S)-4-hydroxy-3-((2-phenyloxazol-4-yl)methy)chroman-7-yl)-N-((1-methylcyclopropyl)sulfonyl)benzamide], which EC50 is on record?
**A.** The EC50 was 3 nM.

**Q.** For CC(C)(C)S(=O)(=O)NC(=O)c1ccccc1-c1ccc2c(c1)OC[C@@H](Cc1coc(-c3ccccc3)n1)[C@@H]2O (single isomer, unassigned) [Example 47, N-(tert-Butylsulfonyl)-2-((3R,4S or 3S,4R)-4-hydroxy-3-((2-phenyloxazol-4-yl)methyl)chroman-7-yl)benzamide], which EC50 is on record?
**A.** Its EC50 is 75 nM.

**Q.** How did the EC50 turn out when CC(C)(C)S(=O)(=O)NC(=O)c1ccccc1-c1ccc2c(c1)OC[C@H](Cc1coc(-c3ccccc3)n1)[C@H]2O (single isomer, unassigned) [Example 48, N-(tert-Butylsulfonyl)-2-((3S,4R or 3R,4S)-4-hydroxy-3-((2-phenyloxazol-4-yl)methyl)chroman-7-yl)benzamide] was run?
**A.** The EC50 was 5 nM.

**Q.** How did the EC50 turn out when C[C@@H](c1ccccn1)C1COc2cc(-c3ccccc3C(=O)NS(=O)(=O)C3(C)CC3)ccc2C1O (stereo in doubt) [Example 49, 2-((3,4-trans)-4-Hydroxy-3-((R)-1-(pyridin-2-yl)ethyl)chroman-7-yl)-N-((1-methylcyclopropyl)sulfonyl)benzamide] was run?
**A.** The EC50 was 154 nM.

**Q.** C[C@H](c1ccccn1)C1COc2cc(-c3ccccc3C(=O)NS(=O)(=O)C3(C)CC3)ccc2C1O (stereo in doubt) [Example 50, 2-((3,4-trans)-4-Hydroxy-3-((S)-1-(pyridin-2-yl)ethyl)chroman-7-yl)-N-((1-methylcyclopropyl)sulfonyl)benzamide] was tested. Which EC50 did it give?
**A.** Its EC50 is 67 nM.

**Q.** For CC(C)CS(=O)(=O)NC(=O)c1ccccc1-c1ccc2c(c1)OCC(Cc1ccccn1)C2O (stereo not drawn) [Example 17, 2-((3,4-trans)-4-Hydroxy-3-(pyridin-2-ylmethyl)chroman-7-yl)-N-(isobutylsulfonyl)benzamide], which EC50 is on record?
**A.** The EC50 was 24 nM.

**Q.** O=C(NS(=O)(=O)CC1CC1)c1ccccc1-c1ccc2c(c1)OCC(Cc1ccccn1)C2O (stereo not drawn) [Example 18, N-((Cyclopropylmethyl)sulfonyl)-2-((3,4-trans)-4-hydroxy-3-(pyridin-2-ylmethyl)chroman-7-yl)benzamide] was tested. Which EC50 did it give?
**A.** The EC50 was 23 nM.

**Q.** For O=C(NS(=O)(=O)C1CCCC1)c1ccccc1-c1ccc2c(c1)OCC(Cc1ccccn1)C2O (stereo not drawn) [Example 19, N-(Cyclopentylsulfonyl)-2-((3,4-trans)-4-hydroxy-3-(pyridin-2-ylmethyl)chroman-7-yl)benzamide], which EC50 is on record?
**A.** The EC50 was 48 nM.

**Q.** Which EC50 does the source give for CC(C)(C)CS(=O)(=O)NC(=O)c1ccccc1-c1ccc2c(c1)OCC(Cc1ccccn1)C2O (stereo not drawn) [Example 20, 2-((3,4-trans)-4-Hydroxy-3-(pyridin-2-ylmethyl)chroman-7-yl)-N-(neopentylsulfonyl)benzamide] here?
**A.** The EC50 was 44 nM.
